Like-named read-outs stand apart in the source and are kept apart here.
System: FD (familial dysautomonia) IKBKAP minigene, exon 20 inclusion, in HEK293T cells
Assay: Primary splicing assay (FD IKBKAP minigene, Firefly/Renilla luciferase reporter in HEK293T)
Assay type: cell-based, human
Details: for EC (maximum kinetin efficacy) / Emax: Homo sapiens, HEK-293T; for EC (maximum kinetin efficacy): HEK293T, read-out: ECk (compound concentration at which the maximum kinetin efficacy (200 μM) is reached)
Experimental: As used herein, the expression “ECk” refers to the compound concentration at which the maximum kinetin efficacy (200 μM) is reached.
Splicing analysis was made possible by using an FD (familial dysautomonia) IKBKAP minigene which contained exon 19 through exon 21, including intervening introns, and also the T→C Thymine to cytosine transition located 6 base-pairs from the end of IKBKAP exon 20; See SEQ ID NO:3 for the complete sequence of plasmid pcDNA3.1/V5HisTOPO with Renilla-Familial Dysautonomia minigene-Firefly. Firefly luciferase (SEQ ID NO:14) was utilized as a splicing reporter, located downstream of exon 21, and Renilla luciferase (SEQ ID NO:13) was used as a control, located upstream of exon 19. The sequence of exon 19 is presented as SEQ ID NO:7; the Intron between Exon 19 and Exon 20 is SEQ ID NO:8; exon 20 is SEQ ID NO:9; the intron between […]; exon 21 is SEQ ID NO: 11, and the spliced sequence of exons 19-20-21 is SEQ ID NO:12. HEK293T cells were plated in a 6-well plate 24 hours prior to transfection. Transfection was carried out using a mixture of Opti-MEM (GIBCO ref. 31985), IKBKAP minigene, and Fugene HID (PROMEGA ref. E2311), incubated in DMEM media containing HEK293T cells at 37° C. The ratio of Opti-MEM, minigene, and Fugene was kept at approximately 9:1.5:1, with a total volume of 150 μL of transfection mixture applied per well.
After 4 hours of transfection, the cells were then plated in a 96-well plate coated with poly-L-lysine (SIGMA cat.P4707) for treatment scheduled 24 hours later. […] After 24 hours of treatment, cells were washed in the poly-L-lysine coated 96-well plate using PBS and subsequently harvested using Passive Lysis Buffer (Promega cat.E196). Cell lysate was transferred to a black and white 96-well plate and analyzed for splicing correction using a Glomax luminometer (PROMEGA GloMax® 96 Microplate Luminometer w/Dual Injectors cat.E6521) and Promega Dual Glo Firefly and Stop and Glo Renilla reagents (Cat.E196). The compound's ability to correct splicing and promote exon 20 inclusion was marked by an increase in Firefly signal. Renilla signal, which is independent of exon 20 inclusion, was used to correct for cell number. Using the ratio of Firefly to Renilla signal, a dose response curve was produced, which referenced kinetin and DMSO Firefly/Renilla ratios as positive and negative controls, respectively.

[1] = Firefly/Renilla ratio, 24 hours of treatment
[2] = max efficacy in Primary Assay, Firefly/Renilla ratio, kinetin and DMSO as positive and negative controls, 24 hours of treatment, read-out: Emax (%)

Row | Structure (SMILES) | EC (maximum kinetin efficacy) [1] [µM] | Emax [2] [%] | also measured
1 | Clc1nc(NCc2nccs2)c2c(Cl)c[nH]c2n1 [(208)] | 107 | 83 | –
2 | OCCn1ccc2c(NCc3nccs3)nc(Cl)nc21 [(137)] | 7.25 | 214 | –
3 | Clc1nc(NCc2ccco2)c2nc(OCCC3CC3)[nH]c2n1 [(489)] | 1.21 | 131 | –
4 | Cc1cccc(Nc2ncnc3[nH]cnc23)c1 [(37)] | 36.5 | – | –
5 | c1c[nH]c(CNc2ncnc3[nH]cnc23)n1 [(6)] | – | 21 | –
6 | Clc1nc(NCc2nccs2)c2nc(OCC#Cc3ccccc3)[nH]c2n1 [(476)] | – | 25.5 | –
7 | Cc1cc2c(NCc3ccncc3)nc(Cl)nc2[nH]1 [(119)] | 11.2 | 114 | –
8 | OCCn1ncc2c(NCc3ccco3)nc(Cl)nc21 [(209)] | 12.2 | 176 | –
9 | Cn1c(=O)[nH]c2nc(Cl)nc(NCc3nccs3)c21 [(470)] | – | 76.8 | –
10 | Fc1nc(NCc2nccs2)c2cc[nH]c2n1 [(379)] | – | 95 | –
11 | c1nc(NCc2cnn[nH]2)c2nc[nH]c2n1 [(406)] | – | 20 | –
12 | CN(Cc1ccco1)c1ncnc2[nH]cnc12 [(403)] | – | 39 | –
13 | Cc1cn(CCO)c2nc(Cl)nc(NCc3nccs3)c12 [(125)] | 6.52 | 225 | –
14 | Clc1nc(NCc2ccncc2Cl)c2cc[nH]c2n1 [(228)] | 15.7 | 152 | –
15 | FC(F)(F)CN1CCC(n2ccc3c(NCc4ccco4)nc(Cl)nc32)CC1 [(200)] | – | 11 | –
16 | FC(F)(F)c1ccc(CCNc2ncnc3[nH]cnc23)cc1 [(26)] | – | 66 | –
17 | Clc1nc2c(c(NCc3nccs3)n1)COC2 [(502)] | – | 28 | –
18 | CCCOc1nc2c(NCc3cscn3)nc(Cl)nc2[nH]1 [(389)] | 0.73 | 211 | –
19 | Clc1nc(NCc2csnn2)c2cc[nH]c2n1 [(498)] | – | 37.7 | –

Row | Structure (SMILES) | EC (maximum kinetin efficacy) [1] [µM] | Emax [2] [%] | also measured
20 | N#Cc1c[nH]c2nc(Cl)nc(NCc3nccs3)c12 [(148)] | – | 62 | –
21 | O=c1[nH]c2nc(Cl)nc(NCc3nccs3)c2[nH]1 [(377)] | 7.21 | 101 | –
22 | Clc1cc(NCc2ccco2)n2nccc2n1 [(322)] | – | 21 | –
23 | Clc1nc(NCc2ccco2)c2cc[nH]c2n1 [(55)] | 1.71 | 173 | –
24 | CCCCOc1nc2c(NCc3nccs3)nc(Cl)nc2[nH]1 [(318)] | 0.54 | 186 | –
25 | FCCn1ccc2c(NCc3ccco3)nc(Cl)nc21 [(150)] | – | – | Emax (max efficacy, value marked (RT-PCR), footnote a: Firefly inhibitor, read-out: Emax (%) (RT-PCR)): 320%; ECk (RT-PCR) (determined by RT-PCR, footnote a Firefly inhibitor, footnote b Renilla interference): 1 to 10 µM
26 | Clc1nc(NCc2nccs2)c2nc(OCc3ncco3)[nH]c2n1 [(505)] | 8.07 | 140 | –
27 | Clc1nc(NCc2ccco2)c2nc(OC3CCC3)[nH]c2n1 [(259)] | 0.38 | 109 | –
28 | CCCOc1nc2nc(Cl)nc(NCc3ccncn3)c2n1C [(337)] | – | 23 | –
29 | OCCn1cc(F)c2c(NCc3nccs3)nc(Cl)nc21 [(130)] | 8.9 | 201 | –
30 | O=c1cc(CNc2nc(Cl)nc3[nH]ccc23)cc[nH]1 [(248)] | – | 10 | –
31 | Clc1nc(NCc2ccncc2)c2nc(OCC3CCC3)[nH]c2n1 [(307)] | 0.21 | 292 | –
32 | Cc1ccccc1CCNc1ncnc2[nH]cnc12 [(32)] | 60 | – | –
33 | Cc1nc(NCc2ccco2)c2nc[nH]c2n1 [(45)] | – | 56 | –
34 | Clc1nc(NCc2ccco2)c2nc(-c3ccccc3)[nH]c2n1 [(93)] | – | 63 | –
35 | Fc1c[nH]c2nc(Cl)nc(NCc3ccncn3)c12 [(112)] | – | – | Emax (max efficacy, Firefly only, footnote c: Renilla interference/Firefly only, read-out: Emax (%) Firefly only): 111%; ECk, Firefly only (Renilla interference/Firefly only (footnote c)): 5.33 µM⁻¹
36 | Clc1nc(NCc2cncs2)c2cc[nH]c2n1 [(373)] | – | 25.1 | –
37 | CCCOc1nc2c(NCc3ccco3)nc(Cl)nc2n1CCO [(306)] | 0.7 | 247 | –
